PubChem BioAssay (NCI)
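All cell lines were grown in 96-well plates and treated with compound for 48 hours. TGI is the concentration that stops growth completely.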

Legend:
Test in all cases: NCI-60 cell line screen, 48 h
[1] = test system: UACC-257 melanoma
[2] = test system: HCT-116 colon
[3] = test system: UACC-62 melanoma
[4] = test system: SK-MEL-5 melanoma
[5] = test system: HCC-2998 colon
[6] = test system: HS 578T breast
[7] = test system: HCT-15 colon
[8] = test system: KM12 colon
[9] = test system: NCI-H23 lung
[10] = test system: SF-268 CNS
[11] = test system: MDA-MB-231 breast
[12] = test system: HOP-62 NSCLC

SMILES | TGI [1] [µM] | TGI [2] [µM] | TGI [3] [µM] | TGI [4] [µM] | TGI [5] [µM] | TGI [6] [µM] | TGI [7] [µM] | TGI [8] [µM] | TGI [9] [µM] | TGI [10] [µM] | TGI [11] [µM] | TGI [12] [µM]
Fc1ccc(N2C(=S)SC(=Nc3ccccc3)C2=Nc2ccccc2)cc1 | > 100 | > 100 | > 100 | > 100 | > 100 | > 100 | > 100 | > 100 | > 100 | > 100 | > 100 | > 100
CC1(C)OC(=S)N(c2ccccc2)C12C=Cc1ccccc1O2 (configuration not stated) | > 100 | > 100 | > 100 | > 100 | > 100 | > 100 | > 100 | > 100 | > 100 | > 100 | > 100 | > 100
CCOC(=O)/C=C/CCO[Si](C)(C)C(C)(C)C | > 100 | > 100 | > 100 | > 100 | > 100 | > 100 | > 100 | > 100 | > 100 | > 100 | > 100 | > 100
Cc1cc(N(CCC#N)CCC#N)ccc1/C(N=Nc1cccc(Cl)c1)=N/NC(=O)c1cc(Cl)ccc1O | 31.2 | 44.4 | 28.9 | 26.9 | 26.2 | > 100 | 24.4 | 35.4 | 31.1 | 75.2 | 49 | 62
C[C@]12C[C@@H](OC(=O)[C@]1(C)O)[C@@H]([C@]1(O)CC[C@H]3[C@@H]4C[C@H]5O[C@]56C[C@H]5O[C@H]5C(=O)[C@]6(C)[C@H]4CC[C@@]31C)C2 | > 50 | > 50 | > 50 | > 50 | > 50 | > 50 | > 50 | > 50 | > 50 | > 50 | > 50 | > 50
Cc1ccc(-c2nc(N/N=C/C=C/c3ccccc3)c3ccccc3n2)cc1 | > 100 | > 100 | 48.1 | > 100 | > 100 | > 100 | > 100 | > 100 | > 100 | > 100 | 47.9 | > 100
Nc1ncnc2oc(C3OC(COC(=O)c4ccccc4)C(OC(=O)c4ccccc4)C3OC(=O)c3ccccc3)nc12 (configuration not stated) | > 100 | > 100 | > 100 | > 100 | > 100 | > 100 | > 100 | > 100 | > 100 | > 100 | > 100 | > 100
C=C1CC(c2ccc(OCCCN3C(=O)c4ccccc4C3=O)cc2)OC1=O (configuration not stated) | 7.55 | 4.89 | 4.75 | 20.4 | 16.8 | 20.4 | 6.84 | 16.8 | 9.34 | 15.4 | 13 | 33.2
Clc1cc(Cl)cc(N=C/C=C/Nc2cc(Cl)cc(Cl)c2)c1 | > 100 | 30.1 | 48 | 34.2 | 33.4 | > 100 | 30.6 | 30.2 | 30.6 | 47.6 | 30.2 | 51.8
CC1=NC(=Cc2ccccc2O)C(=O)N1n1c(-c2ccccc2)nc2ccccc2c1=O | > 100 | > 100 | 34.6 | 61.4 | > 100 | > 100 | > 100 | > 100 | > 100 | > 100 | > 100 | > 100
CCOC(=O)C1(C(=O)OCC)[C@@H](c2ccccc2)C2=NO[C@@H]3CCC[C@H]1[C@H]23 | 79.8 | > 100 | > 100 | > 100 | 50.2 | > 100 | > 100 | > 100 | > 100 | > 100 | > 100 | > 100
CCC1OC2C(CC=C(C)C)=C3OC(C)(O)C(C)(CC)C(OC(C)=O)C3=C3OC(=O)C=C1C32 (configuration not stated) | 53.7 | 70 | 42.1 | 42.2 | 50.6 | > 100 | > 100 | 50 | 75.5 | > 100 | 36.7 | 60.1
CC(=O)Oc1ccc(/C=C/C(=O)OCCCOC(=O)/C=C/c2ccc(OC(C)=O)c(OC(C)=O)c2)cc1OC(C)=O | > 100 | > 100 | > 100 | > 100 | > 100 | > 100 | > 100 | > 100 | > 100 | > 100 | > 100 | > 100
CCOC(=O)N1N=C(/C(C)=N/OC)C(C)S1=O (configuration not stated) | > 100 | > 100 | > 100 | > 100 | > 100 | > 100 | > 100 | > 100 | > 100 | > 100 | > 100 | > 100
COc1ccc2c(c1)c1c(n2CCN(C)C)-c2ccccc2CC1 | 30.3 | 28.7 | 28 | 32.7 | 32.2 | 34.2 | 26.8 | 28 | 31.9 | 32.7 | 27.2 | 30.5
COC(=O)c1ccc2c(c1)S/C(=C/c1ccc3ccc4cccc5ccc1c3c45)S2 | > 100 | > 100 | 61 | > 100 | > 100 | > 100 | > 100 | 57.3 | 52.7 | > 100 | > 100 | > 100
CC(=O)NC1C(OCc2ccccc2)OC(CO)C(O)C1OC(C)C(=O)NC(C)C(=O)NC(CCC(=O)NCCCCNc1c2ccccc2nc2cccc([N+](=O)[O-])c12)C(N)=O (configuration not stated) | 0.509 | 0.068 | 0.115 | 0.119 | 0.0588 | 0.562 | 0.0495 | 0.692 | 0.221 | 0.316 | 0.118 | 0.683
CC1(c2nc3ccccc3[nH]2)CCC(C(=O)O)C(C)(C)O1 (configuration not stated) | > 100 | > 100 | > 100 | > 100 | > 100 | > 100 | > 100 | > 100 | > 100 | > 100 | > 100 | > 100

SMILES | TGI [1] [µM] | TGI [2] [µM] | TGI [3] [µM] | TGI [4] [µM] | TGI [5] [µM] | TGI [6] [µM] | TGI [7] [µM] | TGI [8] [µM] | TGI [9] [µM] | TGI [10] [µM] | TGI [11] [µM] | TGI [12] [µM]
CCOC(=O)CNC(=O)C(CSC(=O)N(O)c1ccc(Cl)cc1)NC(=O)CCC(N)C(=O)OCC (configuration not stated) | > 50 | > 50 | > 50 | > 50 | > 50 | > 50 | > 50 | > 50 | > 50 | > 50 | > 50 | > 50
c1cc2nnc1SCCCSc1ccc(nn1)SCCCS2 | > 71.6 | > 54.1 | > 77.6 | > 100 | 99.5 | 99.2 | > 100 | > 100 | > 100 | > 100 | > 100 | > 93.1
CSC(=S)Nc1cccc(C)n1 | > 100 | > 100 | > 100 | > 100 | > 100 | > 100 | > 100 | > 100 | > 100 | > 100 | > 100 | > 100
CCOC(=O)C(=CNc1ccc(NC2=NCC(C)S2)cc1)C(=O)OCC (configuration not stated) | > 100 | > 100 | 26.8 | 34.5 | > 100 | 74.8 | > 100 | > 87.9 | > 100 | > 100 | > 100 | > 100
COc1ccc(N2C(=O)/C(=C\c3cc(OC)c(OC)c(OC)c3)SC2c2ccccc2)cc1 (configuration not stated) | > 100 | > 100 | > 100 | > 100 | > 100 | > 100 | > 100 | > 100 | > 100 | > 100 | > 100 | > 100
CC1(C)CNCC(C)(OCc2ccccc2)C(=O)NC(C)(C)CNCC(C)(OCc2ccccc2)C(=O)N1 (configuration not stated) | > 10 | > 10 | > 10 | > 10 | > 10 | > 10 | > 10 | > 10 | > 10 | > 10 | > 10 | > 10
Oc1ccc2cc(Br)ccc2c1-c1c(O)ccc2ccc(Br)cc12 | 33.9 | 27.4 | 31 | 37.5 | 19.5 | 24.2 | 29 | 18.9 | 29.1 | 41.1 | 21.6 | 28.5
Cc1nc2ccc(C(F)(F)F)cc2nc1NCc1ccc(Cl)c(Cl)c1 | 30.1 | 32 | 18.5 | 33.8 | 22.3 | 45.5 | 25.3 | 30.1 | 30.9 | 34 | 29.4 | 27.5
NC(=O)C(=CNC(=S)Nc1ccccc1)C(N)=O | > 100 | > 100 | > 100 | > 100 | > 100 | > 100 | > 100 | > 100 | > 100 | > 100 | > 100 | > 100
CCCCCCCC1(N=[N+]=[N-])C(=O)Nc2ccccc2C1=O (configuration not stated) | 41.2 | 32.6 | 23.8 | 28.4 | 39.9 | 42 | 47.3 | 57.7 | 40.5 | 33.3 | 41.3 | 32
C[N+](C)(C)c1ncnc2c1ncn2C1CC(O)C(CO)O1 (configuration not stated) | > 100 | > 100 | > 100 | > 100 | > 100 | > 100 | > 100 | > 100 | > 100 | > 100 | > 100 | > 100
N#Cc1nc(-c2ccco2)oc1N | > 10 | > 10 | > 10 | > 10 | > 10 | > 10 | > 10 | > 10 | > 10 | > 10 | > 10 | > 10
CCOC(=O)c1c(C)n(-c2ccc(Cl)cc2)c2c1cc(O)c1[nH]c3c(c12)CCCC3 | > 100 | > 100 | > 100 | 49.4 | > 100 | 72.4 | > 100 | > 100 | > 100 | > 100 | > 100 | > 100
O=[N+]([O-])c1ccc(C(=S)Nc2ccccc2)o1 | 8.82 | 4.67 | 11.4 | 23.2 | 3.17 | 32.7 | 7.07 | 6.88 | 12.4 | 13 | 8.06 | 9.08
O=c1[nH]nc(Cc2ccccc2)n1C1CCCC1 | > 100 | > 100 | > 100 | > 100 | > 100 | > 100 | > 100 | > 100 | > 100 | > 100 | > 100 | > 100
CCOC(=O)c1sc2nc(SC)nc3c2c1NCN3c1ccc2c(c1)OCO2 | > 100 | > 100 | 31.8 | > 100 | > 100 | 8.07 | > 100 | > 100 | > 100 | 18 | 43 | 18.7
Oc1[nH]c2ccccc2c1N=NC(=S)Nc1ccccc1Cl | 15.5 | 11.8 | 20.6 | 15.8 | > 100 | 56.1 | > 100 | 14.9 | 33.5 | 56.9 | 32 | 37.9
COc1cc2c(c(O)c1OC)C(=O)[C@@H]1CCC(=O)N1C2 | > 100 | > 100 | > 100 | > 100 | > 100 | > 100 | > 100 | > 100 | > 100 | > 100 | > 100 | > 100
